Experiments:
Sphaerotheca fuliginea = experiment: Cucumber Powdery Mildew (CPM) protectant test in the greenhouse; format: in vivo; details: 300 g/ha, 100 is total disease control, 0 is no disease control
Outline: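 Protectant format: one day after spraying with test compound (A/M/W 1:1:2), cotyledon-plus-one-leaf cucumber plants were misted with Sphaerotheca spores at 2×10^5/ml. Greenhouse disease development; percent control scored at day 7 (100 = total, 0 = none).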

Pyricularia oryzae = experiment: whole plant or invertebrate; format: in vivo; details: protectant, 300 g/ha, greenhouse; 100 is total disease control, 0 is no disease control

| SMILES | Cucumber Powdery Mildew (CPM) protectant fungicide data, percent control (Sphaerotheca fuliginea) | Rice Blast (RB) protectant fungicide data, percent control (Pyricularia oryzae) |
| --- | --- | --- |
| CSc1ccc(C2=NN(CC(F)(F)F)C(=O)CN2)cc1 [Compound 147] | 0 percent control | 98 percent control |
| CCCN1N=C(c2ccc(F)cc2)NCC1=O [Compound 148] | 80 percent control | 80 percent control |
| O=C1CNC(c2ccc(F)cc2)=NN1CC(F)(F)F [Compound 149] | 75 percent control | 95 percent control |
| CCc1ccc(C2=NN(CC(F)(F)F)C(=O)CN2)cc1 [Compound 150] | 50 percent control | 100 percent control |
| O=C1CNC(c2cccc(C(F)(F)F)c2)=NN1CC(F)(F)F [Compound 153] | 0 percent control | 100 percent control |
| Cc1cccc(C2=NN(CC(F)(F)F)C(=O)CN2)c1 [Compound 154] | 75 percent control | 0 percent control |
| CCCCOc1ccc(C2=NN(CC(F)(F)F)C(=O)CN2)cc1 [Compound 155] | 85 percent control | 90 percent control |
| CN1N=C(c2ccc(Oc3ccccc3)cc2)NCC1=O [Compound 156] | 0 percent control | 85 percent control |
| Cc1cc(C2=NN(CC(F)(F)F)C(=O)CN2)ccc1[N+](=O)[O-] [Compound 157] | 0 percent control | 98 percent control |
| COc1c(Br)cc(C2=NN(CC(F)(F)F)C(=O)CN2)cc1Br [Compound 158] | 0 percent control | 85 percent control |
| O=C1CNC(c2c(Cl)cncc2Cl)=NN1CC(F)(F)F [Compound 159] | 0 percent control | 85 percent control |
| CCCCOc1ccc(C2=NN(CCC#N)C(=O)CN2)cc1 [Compound 160] | 0 percent control | 75 percent control |
| CCOc1ccc(C2=NN(c3ccc(Cl)cc3)C(=O)CN2)cc1 [Compound 161] | 0 percent control | 80 percent control |
| CCCCN1N=C(c2cc3ccccc3s2)NCC1=O [Compound 162] | 50 percent control | 95 percent control |
| CCCN1N=C(c2cc(Cl)cc(Cl)c2)NCC1=O [Compound 164] | 95 percent control | 100 percent control |
| CCOC(=O)CN1N=C(c2cccc(C)c2)NCC1=O [Compound 165] | 0 percent control | 80 percent control |
| N#CCCN1N=C(c2ccc(-c3ccc([N+](=O)[O-])cc3)cc2)NCC1=O [Compound 166] | 0 percent control | 75 percent control |
| O=C1CNC(c2cccc([N+](=O)[O-])c2)=NN1CC(F)(F)F [Compound 167] | 0 percent control | 85 percent control |

| SMILES | Cucumber Powdery Mildew (CPM) protectant fungicide data, percent control (Sphaerotheca fuliginea) | Rice Blast (RB) protectant fungicide data, percent control (Pyricularia oryzae) |
| --- | --- | --- |
| C#CCN1CC(=O)N(CCCC)N=C1c1ccc(Cl)c(Cl)c1 [Compound 168] | 50 percent control | 95 percent control |
| C#CCN1CC(=O)N(CC(F)(F)F)N=C1c1cc(Cl)cc(Cl)c1 [Compound 169] | 0 percent control | 50 percent control |
| C=CCOC(=O)N1CC(=O)N(CCCC)N=C1c1ccc(Cl)c(Cl)c1 [Compound 170] | 75 percent control | 90 percent control |
| C#CCOC(=O)N1CC(=O)N(CCCC)N=C1c1ccc(Cl)c(Cl)c1 [Compound 171] | 50 percent control | 80 percent control |
| C=CCOC(=O)N1CC(=O)N(CCCC)N=C1c1ccc(Cl)c(Cl)c1 [Compound 172] | 0 percent control | 98 percent control |
| CCCCN1N=C(c2ccc(Cl)c(Cl)c2)N(C(=O)Oc2ccccc2)CC1=O [Compound 173] | 0 percent control | 50 percent control |
| O=C1CNC(c2ccc(Cl)c(Cl)c2)=NN1 [Compound 174] | 0 percent control | 75 percent control |
| CCCCN1N=C(c2cccc(C#N)c2)NCC1=O [Compound 175] | 0 percent control | 95 percent control |
| N#Cc1cccc(C2=NN(CC(F)(F)F)C(=O)CN2)c1 [Compound 176] | 50 percent control | 50 percent control |
| CC=CC(=O)N1CC(=O)N(CCCC)N=C1c1ccc(Cl)c(Cl)c1 [Compound 177] | 50 percent control | 95 percent control |
| CCCCN1N=C(c2ccc(Cl)c(Cl)c2)N(C(=S)Oc2ccccc2)CC1=O [Compound 178] | 0 percent control | 75 percent control |
| CCCCN1N=C(c2ccc(Cl)c(Cl)c2)N(C(=O)OCCCl)CC1=O [Compound 179] | 0 percent control | 75 percent control |
| CCC#CCN1CC(=O)N(CCCC)N=C1c1ccc(Cl)c(Cl)c1 [Compound 180] | 90 percent control | 95 percent control |
| CCCCN1N=C(c2ccc(Cl)c(Cl)c2)N(C(=O)C2CC2)CC1=O [Compound 181] | 0 percent control | 50 percent control |
| CCCCN1N=C(c2ccc(Cl)c(Cl)c2)N(Cc2ccccc2)CC1=O [Compound 182] | 0 percent control | 85 percent control |
| O=C1CNC(c2cccc([N+](=O)[O-])c2)=NN1Cc1ccccc1 [Compound 184] | 75 percent control | 85 percent control |
| O=C1CNC(c2ccccn2)=NN1Cc1ccccc1 [Compound 185] | 75 percent control | 80 percent control |

— US7494996B2 (priority 2000, dated 2009)
